The record followed here is ChEMBL document CHEMBL3822402, “Discovery of potent macrocyclic HCV NS5A inhibitors” (Bioorg Med Chem Lett, 2016).

Assay type in all cases: functional, organism-based, Hepacivirus hominis
Assay [1] concerns Hepatitis C virus. Kind of assay: Antiviral activity against HCV genotype 1a by real time PCR analysis. Particulars: subtype 1a.
Assay [2] relates to Hepatitis C virus. Briefly: Antiviral activity against HCV genotype 1b by real time PCR analysis. Background: In qPCR the cycle at which signal appears reflects the starting amount.
Assay [3] concerns Hepatitis C virus. Briefly: Antiviral activity against HCV genotype 2a by real time PCR analysis.
The subject of assay [4] is Hepatitis C virus. Kind of assay: Antiviral activity against HCV genotype 1a harboring NS5A Y93H mutant by real time PCR analysis. Particulars: subtype 1a.
In assay [5] the test system is Hepatitis C virus. Kind of assay: Antiviral activity against HCV genotype 3a by real time PCR analysis.
The subject of assay [6] is Hepatitis C virus. Briefly: Antiviral activity against HCV genotype 1a in presence of 10% FBS by real time PCR analysis. To be noted: subtype 1a.
In assay [7] the test system is Hepatitis C virus. Kind of assay: Antiviral activity against HCV genotype 1b in presence of 10% FBS by real time PCR analysis.

pEC50: −log10 of the molar value.

In general, pEC50 refers to the EC50 on a negative log10 scale, so that one unit is a factor of ten. For the compound `COC(=O)N[C@H](C(=O)N1C[C@H](OC)C[C@H]1c1ncc(-c2ccc(-c3ccc4c(ccc5nc([C@@H]6[C@H]7CC[C@H](C7)N6C(=O)[C@@H](NC(=O)OC)C(C)C)[nH]c54)c3)cc2)[nH]1)C(C)C`, the pEC50 in the assay with Hepatitis C virus [1] was 10.30; in the assay on Hepatitis C virus [2], 11.15; in the assay with Hepatitis C virus [3], 10.70; in the assay on Hepatitis C virus [4] it was 7.37.

As to `COC(=O)N[C@H](C(=O)N1CCC[C@H]1c1ncc(-c2ccc(-c3ccc4c(ccc5nc([C@@H]6CCCN6C(=O)[C@@H](NC(=O)OC)C(C)C)[nH]c54)c3)cc2O)[nH]1)C(C)C`, the pEC50 in the assay on Hepatitis C virus [1] was 10.10; in the assay with Hepatitis C virus [2], 11.40; with Hepatitis C virus [3] it was 9.70; in the assay with Hepatitis C virus [4], 6.70.

On to `COC(=O)N[C@H](C(=O)N1CCC[C@H]1c1ncc(-c2ccc(-c3ccc4c(ccc5nc([C@@H]6CCCN6C(=O)[C@@H](NC(=O)OC)C(C)C)[nH]c54)c3)cc2C)[nH]1)C(C)C`, for which the pEC50 is 10.70 with Hepatitis C virus [1], 11.70 with Hepatitis C virus [2] and 10.05 in the assay on Hepatitis C virus [3].

For the compound `COC(=O)N[C@H](C(=O)N1CCC[C@H]1c1nc2ccc3cc(-c4ccc(-c5c[nH]c([C@@H]6C[C@@H]7CN6C(=O)[C@H](C(C)C)NC(=O)OCCC/C=C/CO7)n5)cc4)ccc3c2[nH]1)C(C)C`, the pEC50 was 11.00 in the assay with Hepatitis C virus [1], 11.22 in the assay with Hepatitis C virus [2], 10.40 in the assay with Hepatitis C virus [5] and 7.37 with Hepatitis C virus [4].

As to `COC(=O)N[C@H](C(=O)N1C[C@H](N)C[C@H]1c1ncc(-c2ccc(-c3ccc4c(ccc5nc([C@@H]6CCCN6C(=O)[C@@H](NC(=O)OC)C(C)C)[nH]c54)c3)cc2)[nH]1)C(C)C`, the pEC50 in the assay with Hepatitis C virus [1] is 9.40; in the assay with Hepatitis C virus [2], 10.52; in the assay on Hepatitis C virus [3], 8.70; in the assay on Hepatitis C virus [4], 6.01.

Regarding `COC(=O)N[C@H](C(=O)N1CCC[C@H]1c1ncc(-c2ccc(-c3ccc4c(c3)c(Cl)cc3nc([C@@H]5CCCN5C(=O)[C@@H](NC(=O)OC)C(C)C)[nH]c34)cc2)[nH]1)C(C)C`, the pEC50 was 11.00 in the assay on Hepatitis C virus [1], 11.52 in the assay with Hepatitis C virus [2], 11.40 in the assay on Hepatitis C virus [3] and 6.92 with Hepatitis C virus [4].

For `COC(=O)N[C@H](C(=O)N1CCC[C@H]1c1ncc(-c2ccc(-c3ccc4c(ccc5nc([C@@H]6CCCN6C(=O)[C@@H](NC(=O)OC)C(C)C)[nH]c54)c3)cc2C2CC2)[nH]1)C(C)C`, the figures for the pEC50 in the assay on Hepatitis C virus [1], in the assay with Hepatitis C virus [2] and with Hepatitis C virus [3] were 10.00, 11.70 and 9.70, respectively.

`COC(=O)N[C@H](C(=O)N1CCC[C@H]1c1ncc(-c2ccc(-c3ccc4c(ccc5nc([C@@H]6[C@H]7CC[C@H](C7)N6C(=O)[C@@H](NC(=O)OC)C(C)C)[nH]c54)c3)cc2)[nH]1)C(C)C`: the pEC50 was 10.70 in the assay on Hepatitis C virus [1], 11.30 in the assay with Hepatitis C virus [2], 10.70 with Hepatitis C virus [3] and 7.03 with Hepatitis C virus [4].

`COC(=O)N[C@H](C(=O)N1CCC[C@H]1c1nc2ccc3cc(-c4ccc5c(c4)OCCCCCCOC(=O)N[C@@H](C(C)C)C(=O)N4CCC[C@H]4c4ncc-5[nH]4)ccc3c2[nH]1)C(C)C`: the pEC50 is 9.00 in the assay with Hepatitis C virus [1], 8.70 with Hepatitis C virus [2] and 6.07 in the assay on Hepatitis C virus [4].

With `COC(=O)N[C@H](C(=O)N1C[C@H](NC(C)=O)C[C@H]1c1ncc(-c2ccc(-c3ccc4c(ccc5nc([C@@H]6CCCN6C(=O)[C@@H](NC(=O)OC)C(C)C)[nH]c54)c3)cc2)[nH]1)C(C)C`, the pEC50 is 10.15 in the assay on Hepatitis C virus [1], 11.00 with Hepatitis C virus [2], 10.00 in the assay with Hepatitis C virus [3] and 6.65 with Hepatitis C virus [4].

Turning to `COCCO[C@@H]1C[C@@H](c2ncc(-c3ccc(-c4ccc5c(ccc6nc([C@@H]7[C@H]8CC[C@H](C8)N7C(=O)[C@@H](NC(=O)OC)C(C)C)[nH]c65)c4)cc3)[nH]2)N(C(=O)[C@@H](NC(=O)OC)C(C)C)C1`, the pEC50 with Hepatitis C virus [1] is below 9.00; with Hepatitis C virus [2] it was 11.00; in the assay on Hepatitis C virus [3], 10.00; with Hepatitis C virus [4], 6.39.

In the case of `CC(C)[C@H](NC(=O)OC1(C)CC1)C(=O)N1CCC[C@H]1c1ncc(-c2ccc(-c3ccc4c(c3)c(Cl)cc3nc([C@@H]5CCCN5C(=O)[C@@H](NC(=O)OC5(C)CC5)C(C)C)[nH]c34)cc2)[nH]1`, the pEC50 in the assay on Hepatitis C virus [1] was below 9.00; with Hepatitis C virus [2] it was 8.40.

On to `COC(=O)N[C@H](C(=O)N1CCC[C@H]1c1ncc(-c2ccc3oc(-c4ccc(-c5c[nH]c([C@@H]6C[C@@H]7CN6C(=O)[C@H](C(C)C)NC(=O)OC/C=C/CCCO7)n5)cc4)cc3c2)[nH]1)C(C)C`, for which the negative-log EC50 (pEC50) with Hepatitis C virus [1] was 9.40; in the assay with Hepatitis C virus [2], 10.40; with Hepatitis C virus [5], 8.70; in the assay on Hepatitis C virus [4] it was 7.35.

For the compound `COC(=O)N[C@@H]1C[C@@H](c2ncc(-c3ccc(-c4ccc5c(ccc6nc([C@@H]7CCCN7C(=O)[C@@H](NC(=O)OC)C(C)C)[nH]c65)c4)cc3)[nH]2)N(C(=O)[C@@H](NC(=O)OC)C(C)C)C1`, the pEC50 was 9.70 with Hepatitis C virus [1], 11.05 in the assay with Hepatitis C virus [2], 10.30 with Hepatitis C virus [3] and 7.10 in the assay with Hepatitis C virus [4].

In the case of `COC(=O)N[C@H](C(=O)N1CCC[C@H]1c1ncc(-c2ccc3oc(-c4ccc(-c5c[nH]c([C@@H]6C[C@@H]7CN6C(=O)[C@H](C(C)C)NC(=O)OCCCCCCO7)n5)cc4)cc3c2)[nH]1)C(C)C`, the pEC50 in the assay on Hepatitis C virus [6] is 8.85; in the assay with Hepatitis C virus [7] it was 9.70.

Turning to `COC(=O)N[C@H](C(=O)N1C[C@H](O)C[C@H]1c1ncc(-c2ccc(-c3ccc4c(ccc5nc([C@@H]6[C@H]7CC[C@H](C7)N6C(=O)[C@@H](NC(=O)OC)C(C)C)[nH]c54)c3)cc2)[nH]1)C(C)C`, the pEC50 with Hepatitis C virus [1] is 9.70; in the assay on Hepatitis C virus [2], 11.15; in the assay on Hepatitis C virus [3], 9.40; with Hepatitis C virus [4], 7.68.

In the case of `COC(=O)N[C@H](C(=O)N1CCC[C@H]1c1nc2ccc3cc(-c4ccc(-c5c[nH]c([C@@H]6C[C@@H]7CN6C(=O)[C@H](C(C)C)NC(=O)OCCCCCCO7)n5)cc4)ccc3c2[nH]1)C(C)C`, the pEC50 with Hepatitis C virus [1] was 11.22; in the assay on Hepatitis C virus [2] it was 11.00; in the assay with Hepatitis C virus [5], 9.30; with Hepatitis C virus [4], 6.73.

On to `COC(=O)N[C@H](C(=O)N1CCC[C@H]1c1nc2ccc3cc(-c4ccc(-c5cnc([C@@H]6CC[C@H]7C(=O)N[C@@H](C(C)C)C(=O)N76)[nH]5)cc4)ccc3c2[nH]1)C(C)C`, for which the pEC50 in the assay with Hepatitis C virus [1] was 9.52; in the assay with Hepatitis C virus [2], 11.15; in the assay on Hepatitis C virus [5], 7.92; in the assay with Hepatitis C virus [4], 6.34.

For `CC(C)OC(=O)N[C@H](C(=O)N1CCC[C@H]1c1ncc(-c2ccc(-c3ccc4c(c3)c(Cl)cc3nc([C@@H]5CCCN5C(=O)[C@@H](NC(=O)OC(C)C)C(C)C)[nH]c34)cc2)[nH]1)C(C)C`, the figures for the pEC50 in the assay with Hepatitis C virus [1] and in the assay with Hepatitis C virus [2] were below 9.00 and 7.46, respectively.

For `COC(=O)N[C@H](C(=O)N1CCC[C@H]1c1ncc(-c2ccc(-c3ccc4c(ccc5nc([C@@H]6CCCN6C(=O)[C@@H](NC(=O)OC)C(C)C)[nH]c54)c3)cc2OCCN2CCOCC2)[nH]1)C(C)C`, the pEC50 with Hepatitis C virus [1] was below 9.00; in the assay on Hepatitis C virus [2] it was 8.70; in the assay with Hepatitis C virus [3] it was below 8.00; in the assay on Hepatitis C virus [4], 5.87.

With `COCCOC(=O)N[C@H](C(=O)N1CCC[C@H]1c1ncc(-c2ccc(-c3ccc4c(c3)c(Cl)cc3nc([C@@H]5CCCN5C(=O)[C@@H](NC(=O)OCCOC)C(C)C)[nH]c34)cc2)[nH]1)C(C)C`, the pEC50 in the assay with Hepatitis C virus [1] is below 9.00; in the assay with Hepatitis C virus [2], 7.82; in the assay with Hepatitis C virus [3] it was below 9.00; in the assay with Hepatitis C virus [4] it was below 6.00.
